Usually IC50 stands for the concentration at which inhibition is half-maximal.

This experiment concerns the target KRasG12C (M1-K169, biotinylated on the N-terminus) (Homo sapiens (Human), UniProt P01116, G12C). The experiment in a line: Covalent competition assay: scintillation proximity assay (SPA) quantifying covalent modification of KRASG12C. The class given is binding. The settings on record: competition with radiolabeled covalent probe (Compound B/Compound A), 2 hours incubation, 10 nM KRasG12C. As to the method: Cells were harvested by centrifugation and frozen at −80° C. until further processing. […] The cells were lysed by 4 passages through an Avestin Emulsiflex at about 20000 psi and insoluble debris removed by centrifugation and filtered through a 0.45 µm Durapore membrane (Millipore). […] Eluted protein fractions were analyzed by Novex NuPage 4-12% PAGE. […] The protein in the flow through was subjected to a final polishing step on a HiLoad 16/60 Superdex 200 prep grade size-exclusion column pre-equilibrated with SEC-buffer (20 mM HEPES pH 7.4, 150 mM NaCl, 5 mM MgCl2, 1 µM GDP). Positive fractions were determined by PAGE (Novex NuPage 4-12% BisTris) analysis.
A scintillation proximity assay (SPA) was used to determine the potency of the compounds.
This assay measures the ability of the test compound to compete with the radiolabeled covalent probe for binding to and covalently modify KRASG12C.
(see above for synthesis of Compound A and Compound B). A serial dilution of the compounds to be tested is mixed with a fixed concentration of the radiolabeled covalent probe before incubation with KRASG12C:GDP as described below. KRASG12C can either be bound by the radiolabeled covalent probe (Compound B), resulting in light being emitted from the beads, or bound by covalent test compound preventing signal generation.
A 1/20 isotopic dilution of labeled (Compound B) and non-labeled covalent (Compound A) probe was prepared and added to all wells on the plate. The reaction was started by addition of KRasG12C (M1-K169, biotinylated on the N-terminus) to the compounds and incubated for 2 hours with continuous agitation allowing for full modification of KRasG12C with probe or test compounds. Final concentrations in an assay volume of 40 μL were 10 nM KRasG12C, 25 nM radio-ligand and 475 nM unlabelled ligand. The assay buffer contained 20 mM Tris-HCl pH 7.5 (Invitrogen), 150 mM NaCl (Sigma Aldrich), 0.1 mM MgCl2 (Sigma Aldrich), and 0.01% Tween-20 (Sigma Aldrich). Following addition of 50 μL of a 400 μg/mL suspension of streptavidin-coated YSi beads (Perkin Elmer), plates were incubated for a further 30 min with continuous agitation before reading the plates on a scintillation counter (Topcount NXT 384 (Packard).
Evaluation was carried out using assay data analysis software (such as the standard Novartis in-house Helios software application, Novartis Institutes for BioMedical Research, unpublished) using the methods described in Formenko et al., Robust Regression for high-throughput screening, Computer Methods and Programs in Biomedicine, 2006, 82, 31-37. Following normalization of activity values for the wells to % inhibition (% inhibition=[(high control−sample)/(high control−low control)]×100), IC50 fitting was carried out from the duplicate determinations present on each plate according to Formenko et al., 2006.
Evaluation can also be carried out using commercially available software which is designed to derive IC50 values using 4-parameter fits (e.g. GraphPad Prism, XL fit).
For `C=CC(=O)N1CC2(CC(n3nc(N4CCN(C(C)=O)CC4(C)C)c(-c4c(C)c(C)cc5[nH]ncc45)c3C)C2)C1` (single isomer, unassigned) [Example 1a, 1-(6-(3-(4-Acetyl-2,2-dimethylpiperazin-1-yl)-4-(5,6-dimethyl-1H-indazol-4-yl)-5-methyl-1H-pyrazol-1-yl)-2-azaspiro[3.3]heptan-2-yl)prop-2-en-1-one], the IC50 amounted to 0.086 µM.
As to `C=CC(=O)N1CC2(CC(n3nc(N4CCN(C(C)=O)CC4(C)C)c(-c4c(C)c(C)cc5[nH]ncc45)c3C)C2)C1` (single isomer, unassigned) [Example 1b, 1-(6-(3-(4-Acetyl-2,2-dimethylpiperazin-1-yl)-4-(5,6-dimethyl-1H-indazol-4-yl)-5-methyl-1H-pyrazol-1-yl)-2-azaspiro[3.3]heptan-2-yl)prop-2-en-1-one], the IC50 was found to be 10.7 µM.
Regarding `C=CC(=O)N1CC2(CC(n3nc(N4CCN(C(C)=O)CC4)c(-c4c(C)c(C)cc5[nH]ncc45)c3C)C2)C1` (single isomer, unassigned) [Example 2a, 1-(6-(3-(4-acetylpiperazin-1-yl)-4-(5,6-dimethyl-1H-indazol-4-yl)-5-methyl-1H-pyrazol-1-yl)-2-azaspiro[3.3]heptan-2-yl)prop-2-en-1-one], the concentration for half-maximal inhibition (IC50) is over 50 µM.
Consider `C=CC(=O)N1CC2(CC(n3nc(N4CCN(C(C)=O)CC4)c(-c4c(C)c(C)cc5[nH]ncc45)c3C)C2)C1` (single isomer, unassigned) [Example 2b, 1-(6-(3-(4-acetylpiperazin-1-yl)-4-(5,6-dimethyl-1H-indazol-4-yl)-5-methyl-1H-pyrazol-1-yl)-2-azaspiro[3.3]heptan-2-yl)prop-2-en-1-one], for which the IC50 was found to be 3.2 µM.
Take `C=CC(=O)N1CC2(CC(n3nc(N4CCn5nccc5C4)c(-c4c(Cl)c(C)cc5[nH]ncc45)c3C)C2)C1` (single isomer, unassigned) [Example 10a, 1-(6-(4-(5-Chloro-6-methyl-1H-indazol-4-yl)-3-(6,7-dihydropyrazolo[1,5-a]pyrazin-5(4H)-yl)-5-methyl-1H-pyrazol-1-yl)-2-azaspiro[3.3]heptan-2-yl)prop-2-en-1-one]: the IC50 is 50 µM.
`C=CC(=O)N1CC2(CC(n3nc(N4CCn5nccc5C4)c(-c4c(Cl)c(C)cc5[nH]ncc45)c3C)C2)C1` (single isomer, unassigned) [Example 10b, 1-(6-(4-(5-Chloro-6-methyl-1H-indazol-4-yl)-3-(6,7-dihydropyrazolo[1,5-a]pyrazin-5(4H)-yl)-5-methyl-1H-pyrazol-1-yl)-2-azaspiro[3.3]heptan-2-yl)prop-2-en-1-one]: the 50% inhibitory concentration (IC50) came out at 0.105 µM.
With `C=CC(=O)N1CC2(CC(n3nc(N4CCc5c(cnn5C)C4)c(-c4c(Cl)c(C)cc5[nH]ncc45)c3C)C2)C1` (single isomer, unassigned) [Example 11a, 1-(6-(4-(5-chloro-6-methyl-1H-indazol-4-yl)-5-methyl-3-(1-methyl-1,4,6,7-tetrahydro-5H-pyrazolo[4,3-c]pyridin-5-yl)-1H-pyrazol-1-yl)-2-azaspiro[3.3]heptan-2-yl)prop-2-en-1-one], the IC50 was over 50 µM.
As to `C=CC(=O)N1CC2(CC(n3nc(N4CCc5c(cnn5C)C4)c(-c4c(Cl)c(C)cc5[nH]ncc45)c3C)C2)C1` (single isomer, unassigned) [Example 11b, 1-(6-(4-(5-chloro-6-methyl-1H-indazol-4-yl)-5-methyl-3-(1-methyl-1,4,6,7-tetrahydro-5H-pyrazolo[4,3-c]pyridin-5-yl)-1H-pyrazol-1-yl)-2-azaspiro[3.3]heptan-2-yl)prop-2-en-1-one], the IC50 is 0.12 µM.
In the case of `C=CC(=O)N1CC2(CC(n3nc(N4[C@H](C)CN(C(C)=O)C[C@@H]4C)c(-c4c(Cl)c(C)cc5[nH]ncc45)c3C)C2)C1` (single isomer, unassigned) [Example 13a], the half-inhibitory concentration (IC50) is over 50 µM.
Turning to `C=CC(=O)N1CC2(CC(n3nc(N4[C@H](C)CN(C(C)=O)C[C@@H]4C)c(-c4c(Cl)c(C)cc5[nH]ncc45)c3C)C2)C1` (single isomer, unassigned) [Example 13b], the IC50 was determined as 2.1 µM.

Source of the values: patent publication US20240317721A1, “PYRAZOLYL DERIVATIVES AS INHIBITORS OF THE KRAS MUTANT PROTEIN” (NOVARTIS AG, priority 2021, published 2024).
